These are literature values, as cited in patent US20100113603A1, “COMBINATION THERAPIES FOR THE TREATMENT OF OBESITY” (priority 2008, published 2010).

The conditions of the series: literature studies of each medication.
Consider `CC(C)(N)Cc1ccccc1` [phentermine], for which the “weight loss of body weight for drug compared with placebo” value (“weight loss … compared with placebo” below) is “about 5%”.
On to `CC(C)CC(N(C)C)C1(c2ccc(Cl)cc2)CCC1` (stereo not shown) [sibutramine], for which the “weight loss … compared with placebo” value is on record as “about 5%”.
Take `CCCCCCCCCCC[C@@H](C[C@@H]1OC(=O)[C@H]1CCCCCC)OC(=O)[C@H](CC(C)C)NC=O` [orlistat]: the “weight loss … compared with placebo” value is given as “about 5%”.
Consider `CCN[C@@H](C)Cc1cccc(C(F)(F)F)c1` [dexfenfluramine], for which the “weight loss … compared with placebo” value is “about 5%”.
